Laboratory results as given in US20250353873A1, “COMPOUNDS AND METHODS FOR MODULATING APOE EXPRESSION” (Ionis Pharmaceuticals, Inc., priority 2024, published 2025).
pIC50: −log10 of the molar value. Strand notation (5' to 3'): a small letter for the sugar, then the base; units joined by * are phosphorothioate-linked, units joined directly phosphodiester-linked; [ ] holds rarer units or linkages, { } end groups; capitals alone tell only the bases. e = 2'-O-(2-methoxyethyl) (MOE); k = constrained ethyl (cEt); [5mC] = 5-methylcytosine; d = 2'-deoxy (DNA)

Legend:
human APOE RNA [1] = experiment: Activity in APOE C57BL/6NTac-Apoeem7250 knock-in mice, single ICV bolus, 20 weeks (Example 13); assay type: in vivo; conditions: single ICV bolus 300 μg, 20 weeks post treatment, normalized to mouse Ppia
Experimental: Modified oligonucleotides described above were tested in the APOE C57BL/6NTac-Apoeem7250 knock-in mouse model described above.
APOE C57BL/6NTac-Apoeem7250 knock-in mice were divided into groups of 4 mice each. Each mouse received a single ICV bolus of 300 μg of modified oligonucleotide. A group of 2-4 mice received a single ICV bolus with PBS as a negative control.
Twenty weeks post treatment, mice were sacrificed and RNA was extracted from cortical brain tissue and spinal cord for quantitative real-time RT-PCR analysis of RNA expression of APOE using human primer probe set RTS3073 (described herein above). APOE RNA levels were normalized to mouse Ppia. Mouse Ppia was amplified using primer probe set m_cyclo24 (described herein above). Results are presented as percent human APOE RNA relative to the amount of human APOE RNA in PBS treated animals, (% control). Each experiment is identified in separate tables below.

human APOE RNA [2] = experiment: Dose-dependent inhibition of human APOE RNA in HepG2 cells, electroporation, 50,000 cells per well, RT-PCR normalized to GAPDH (Example 4, Tables 8-10); assay type: cell-based; conditions: HepG2, electroporation, 16-hour treatment
Summary of the method: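 HepG2 cells, 50,000 per well, electroporated with modified oligonucleotide at various concentrations. APOE RNA quantified by RT-PCR with human primer probe set RTS3073, normalized to GAPDH. Values are percent APOE RNA relative to untreated control cells.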

Row | Substance | APOE RNA (% control) Cortex (human APOE RNA [1]) [% control] | APOE RNA (% control) Spinal Cord (human APOE RNA [1]) [% control] | APOE RNA (% UTC) (human APOE RNA [2]; 5 nM) | APOE RNA (% UTC) (human APOE RNA [2]; 13 nM) | APOE RNA (% UTC) (human APOE RNA [2]; 33 nM) | APOE RNA (% UTC) (human APOE RNA [2]; 82 nM) | APOE RNA (% UTC) (human APOE RNA [2]; 205 nM) | APOE RNA (% UTC) (human APOE RNA [2]; 512 nM) | APOE RNA (% UTC) (human APOE RNA [2]; 1,280 nM) | APOE RNA (% UTC) (human APOE RNA [2]; 3,200 nM) | APOE RNA (% UTC) (human APOE RNA [2]; 8,000 nM) | APOE RNA (% UTC) (human APOE RNA [2]; 20,000 nM) | pIC50 (human APOE RNA [2])
1 | 1757541: mixed MOE/cEt gapmer TTGGTGAATCTTTATTAA, sugar eeeekddddddddeeeee, linkages soossssssssssooss (eT*eTeGeG*kT*dG*dA*dA*dT*d[5mC]*dT*dT*dT*eAeTeT*eA*eA) [compound 1757541] | 88 | 80 | 104 | 103 | 100 | 99 | 91 | 66 | 60 | 38 | 22 | 8 | 5.75
2 | 1757544: mixed MOE/cEt gapmer TTGGTGAATCTTTATTAA, sugar ekeeeddddddddeeeee, linkages soossssssssssooss (eT*kTeGeG*eT*dG*dA*dA*dT*d[5mC]*dT*dT*dT*eAeTeT*eA*eA) [compound 1757544] | 101 | 96 | 104 | 86 | 100 | 111 | 90 | 75 | 59 | 42 | 26 | 12 | 5.66
3 | 1757551: mixed MOE/cEt gapmer TTGGTGAATCTTTATTAA, sugar eeekkddddddddeeeee, linkages soossssssssssooss (eT*eTeGkG*kT*dG*dA*dA*dT*d[5mC]*dT*dT*dT*eAeTeT*eA*eA) [compound 1757551] | 93 | 53 | 91 | 248 | 88 | 55 | 52 | 41 | 35 | 29 | 14 | 9 | 6.37
4 | 1757554: mixed MOE/cEt gapmer TTGGTGAATCTTTATTAA, sugar kkeeeddddddddeeeee, linkages soossssssssssooss (kT*kTeGeG*eT*dG*dA*dA*dT*d[5mC]*dT*dT*dT*eAeTeT*eA*eA) [compound 1757554] | 95 | 68 | 91 | 113 | 101 | 106 | 89 | 71 | 52 | 27 | 28 | 13 | 5.80
5 | 1757556: mixed MOE/cEt gapmer TTGGTGAATCTTTATTAA, sugar eeeeeddddddddekkee, linkages soossssssssssooss (eT*eTeGeG*eT*dG*dA*dA*dT*d[5mC]*dT*dT*dT*eAkTkT*eA*eA) [compound 1757556] | 99 | 82 | 92 | 93 | 98 | 103 | 101 | 65 | 71 | 60 | 35 | 13 | 5.45
6 | 1757559: mixed MOE/cEt gapmer TTGGTGAATCTTTATTAA, sugar eeeekddddddddkeeee, linkages soossssssssssooss (eT*eTeGeG*kT*dG*dA*dA*dT*d[5mC]*dT*dT*dT*kAeTeT*eA*eA) [compound 1757559] | 94 | 69 | 90 | 80 | 89 | 87 | 81 | 89 | 60 | 42 | 39 | 25 | 5.51
7 | 1757561: mixed MOE/cEt gapmer TTGGTGAATCTTTATTAA, sugar eeekkddddddddkeeee, linkages soossssssssssooss (eT*eTeGkG*kT*dG*dA*dA*dT*d[5mC]*dT*dT*dT*kAeTeT*eA*eA) [compound 1757561] | 92 | 64 | 96 | 191 | 240 | 104 | 130 | 71 | 45 | 38 | 35 | 12 | 5.68
8 | 1757562: mixed MOE/cEt gapmer TTGGTGAATCTTTATTAA, sugar eeeekddddddddkkeee, linkages soossssssssssooss (eT*eTeGeG*kT*dG*dA*dA*dT*d[5mC]*dT*dT*dT*kAkTeT*eA*eA) [compound 1757562] | 96 | 88 | 160 | 86 | 56 | 87 | 52 | 45 | 40 | 29 | 28 | 16 | 6.24
9 | 1757563: mixed MOE/cEt gapmer TTGGTGAATCTTTATTAA, sugar eeeekddddddddkekee, linkages soossssssssssooss (eT*eTeGeG*kT*dG*dA*dA*dT*d[5mC]*dT*dT*dT*kAeTkT*eA*eA) [compound 1757563] | 93 | 71 | 95 | 103 | 84 | 94 | 76 | 67 | 54 | 41 | 17 | 8 | 5.86
